{"source": "patent US11932652B2", "about": "“Pyrrolidinyl urea derivatives and application thereof in TrkA-related diseases” (ZHANGZHOU PIEN TZE HUANG PHARMACEUTICAL CO., LTD., priority 2018, dated 2024)", "key": {"[1]": {"test": "In vivo pharmacokinetics in mice after single administration", "parameters": "species or system CD-1 mice", "protocol": "Male CD-1 mice were used as test animals, the concentration of the compound in blood was determined after single administration to evaluate the pharmacokinetic behavior.\nCD-1 mice (male, 20-40 g, 6-9 weeks, Shanghai Sippr-Bk Laboratory Animal Co., Ltd.)\nThe pharmacokinetic characteristics of the test compound in rodents after intravenous injection and oral administration were tested by standard protocols, in the experiment, the test compound was prepared into a clear solution or homogeneous suspension, and administered to the mice by single intravenous injection and oral administration. […] The plasma sample was added to acetonitrile solution containing the internal standard with a volume 20 times that of the plasma sample to precipitate proteins, and then centrifuged; the supernatant was separated, and water with a volume twice that of the supernatant was added to the supernatant, which was then centrifuged again; the supernatant was collected for analysis; LC-MS/MS analysis method was used to quantitatively analyze the blood drug concentration, and Phoenix WinNonlin software (Pharsight, USA) was used to calculate the pharmacokinetic parameters, such as peak concentration, time to peak concentration, clearance rate, half-life, area under the concentration-time curve, bioavailability, etc. […]"}, "[2]": {"test": "In vivo pharmacokinetics in rats after single administration", "details": "male, Sprague-Dawley, rat, plasma, 10 mg/kg, 10 mpk oral administration", "protocol": "Male SD rats were used as test animals, and the concentration of the compound in blood was determined after single administration to evaluate the pharmacokinetic behavior.\nSprague Dawley rats (male, 200-300 g, 7-9 weeks, Shanghai Charles River Laboratory Animal Co., Ltd.)\nThe pharmacokinetic characteristics of the test compound in rodents after intravenous injection and oral administration were tested by standard protocols, in the experiment, the test compound was prepared into a clear solution or homogeneous suspension, and administered to the rats by single intravenous injection and oral administration. In the intravenous injection group, the menstruum was a certain proportion of ethanol and physiological saline solution or a certain proportion of dimethyl sulfoxide in HP-β cyclodextrin solution (pH was adjusted to 3-4), the mixture was vortexed and stirred to prepare 2 mg/mL or 1 mg/mL clear solution, then filtered with microporous membrane for later use; in the oral administration group, the menstruum was a certain proportion of sodium carboxymethyl cellulose solution or a certain proportion of dimethyl sulfoxide in HP-0 cyclodextrin solution (pH was adjusted to about 4), after the test compound was mixed with the solvent, the mixture was vortexed and stirred to prepare 2 mg/mL or 1 mg/mL homogeneous suspension or clear solution for later use. After 2 mg/kg intravenous administration or 10 mg/kg oral administration to rats, a certain amount of whole blood samples were collected, centrifuged at 3000 g for 15 minutes, the supernatant was separated to give the plasma samples; then an acetonitrile solution containing internal standard with a volume 3 times that of the plasma sample was added to precipitate proteins, and then centrifuged; the supernatant was separated, and water with a volume twice that of the supernatant was added to the supernatant, which was then centrifuged again; the supernatant was collected for analysis; LC-MS/MS analysis method was used to quantitatively analyze the blood drug concentration, and Phoenix WinNonlin software (Pharsight, USA) was used to calculate the pharmacokinetic parameters, such as peak concentration, time to peak concentration, clearance rate, half-life, area under the concentration-time curve, bioavailability, etc.\nAmong them, C0 is the initial concentration, T1/2 is the elimination half-life, Vdss is the steady-state apparent volume of distribution, Cl is the total clearance rate, AUC0-inf is the area under the plasma drug concentration-time curve from time 0 to infinity, Cmax is the peak concentration, Tmax is the time to peak concentration."}, "CYP3A4": {"target": "T1, CYP3A4 (Homo sapiens, UniProt P08684)", "T1 construct": "from tissue; host or cells: human liver microsomes", "T1 sequence (P08684 whole entry)": "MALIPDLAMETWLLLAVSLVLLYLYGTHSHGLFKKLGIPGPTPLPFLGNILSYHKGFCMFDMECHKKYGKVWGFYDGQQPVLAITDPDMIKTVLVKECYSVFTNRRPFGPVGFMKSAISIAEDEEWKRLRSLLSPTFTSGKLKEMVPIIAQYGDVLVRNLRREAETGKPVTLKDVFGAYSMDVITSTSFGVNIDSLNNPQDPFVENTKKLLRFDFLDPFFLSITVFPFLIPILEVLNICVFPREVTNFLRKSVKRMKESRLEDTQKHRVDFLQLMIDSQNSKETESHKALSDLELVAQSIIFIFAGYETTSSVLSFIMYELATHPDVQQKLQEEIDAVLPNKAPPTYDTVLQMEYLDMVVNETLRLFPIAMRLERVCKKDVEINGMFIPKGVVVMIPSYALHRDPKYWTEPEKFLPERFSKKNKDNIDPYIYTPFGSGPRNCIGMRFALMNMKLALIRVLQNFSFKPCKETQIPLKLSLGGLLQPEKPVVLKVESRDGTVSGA", "test": "Cytochrome P450 isozyme inhibitory activity test, CYP3A4", "format": "in vitro ADME", "details": "heading: Cytochrome P450 isozyme IC50, CYP3A4; human liver microsome", "protocol": "Determination of the inhibitory activity of the test compound on different human cytochrome P450 isozymes.\nThe test compound, standard inhibitor (100×final concentration), and a mixed substrate working solution were prepared; the microsome frozen in −80° C. refrigerator was thawed. 2 μL of the test compound and standard inhibitor solution was added to the corresponding wells, and at the same time 2 μL of the corresponding solvent was added to the non-inhibitor control wells (NIC) and blank control wells (Blank) wells; then 20 μL of mixed substrate solution was added to the corresponding wells, except for the Blank wells (20 μL of PB was added to the Blank wells); a human liver microsome solution was prepared (put back into the refrigerator immediately after using and marking the date), and then 158 μL of the human liver microsome solution was added to all wells; the above sample plate was placed in a 37° C. water bath for pre-incubation, then the coenzyme factor (NADPH) solution was prepared; 10 minutes later, 20 μL of the NADPH solution was added to all wells, and the sample plate was shaken well, placed in a 37° C. water bath and incubated for 10 minutes; at the corresponding time point, 400 μL of cold acetonitrile solution (internal standard: 200 ng/mL tolbutamide and labetalol) was added to terminate the reaction; the sample plate was evenly mixed, centrifuged at 4000 rpm for 20 minutes to precipitate proteins; 200 μL of the supernatant was added to 100 μL of water, shook well, and tested by LC/MS/MS."}}}
{"molecule": "COCCN1C[C@@H](n2ccc(F)c2)[C@H](NC(=O)Nc2c(C)c(-c3cnc(C4(F)COC4)nc3)nn2-c2ccccc2)C1", "note": "[Compound 7]", "values": [{"measurement": "pharmacokinetic properties and oral bioavailability (in words)", "setting": "[1]", "value": "good pharmacokinetic properties and oral bioavailability"}, {"measurement": "AUC(0-inf)", "setting": "[2]", "value": 3.24, "unit": "µM·h"}, {"measurement": "Cmax", "setting": "[2]", "value": 1790, "unit": "nM"}, {"measurement": "Tmax", "setting": "[2]", "value": 0.63, "unit": "h"}, {"measurement": "bioavailability", "setting": "[2]", "value": 24.8, "unit": "%"}, {"measurement": "half-life", "setting": "[2]", "value": 1.6, "unit": "h"}, {"measurement": "IC50", "setting": "CYP3A4", "value": "> 50", "unit": "µM"}]}
